According to US20240301319A1, “PERFUMING COMPOSITIONS” (FIRMNICH SA, priority 2017, published 2024):
Counter-ions that a name gives are not always drawn.

Experiments:
[1] = Volatility of perfuming compounds (Tables 4 to 10), with top/middle/bottom note type; type: physicochemical
In short: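 Volatility is expressed in μg/l in air. Top notes are 70,000 to 100 μg/l, middle notes 99 to 50 μg/l, and bottom notes 49 to 0.1 μg/l. Compounds are grouped by olfactive family: watery, green, fruity, citrus, sweet, gourmand and woody.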

[2] = Odor threshold and odor value of perfuming compounds (Tables 4 to 10)
[3] = Table 7, citrus note, top, middle or bottom note
[4] = Table 7, citrus note, equals volatility divided by odor threshold
[5] = Table 6, perfuming compounds having a fruity note, note type by volatility
[6] = note type (Top/Middle/Bottom) by volatility, perfuming compounds having a green note
[7] = perfuming compounds having a green note
[8] = Table 6, perfuming compounds having a fruity note
[9] = Table 8, perfuming compounds having a sweet note
[10] = Table 8, perfuming compounds having a sweet note, note type by volatility
[11] = Table 9, perfuming compounds having a gourmand note, note type by volatility
[12] = Table 4, watery note, top, middle or bottom note
[13] = Table 4, watery note, equals volatility divided by odor threshold

| Compound | Type [1, 6] | Volatility (μg/l air) [1, 7] | Volatility [1, 9] | Type [1, 10] | Volatility [1, 8] | Type [1, 5] | Odor Threshold (μg/l air) [2, 7] | Odor Threshold [2, 9] | Odor Value [2, 9] | other results |
| --- | --- | --- | --- | --- | --- | --- | --- | --- | --- | --- |
| tricyclo[5.2.1.0~2,6~]dec-3-en-8-yl acetate (A) + tricyclo[5.2.1.0~2,6~]dec-4-en-8-yl acetate (B) |  |  |  |  |  |  |  |  |  | Volatility (μg/l air) ([1]; Table 7, citrus note): 96.53 μg/l air; Type [1, 3]: Middle; Odor Threshold (μg/l air) ([2]; Table 7, citrus note): 7.19E−04 μg/l air; Odor Value [2, 4]: 1.34E+05 |
| CCC(=O)O[C@H]1C[C@@H]2CC[C@@]1(C)C2(C)C |  |  |  |  |  |  |  |  |  | Type ([1]; Table 10, perfuming compounds having a woody note, note type by volatility): Top; Volatility ([1]; Table 10, woody note): 216.42 μg/l air; Odor Threshold ([2]; Table 10, woody note): 4.55E−02 μg/l air |
| cis-4-(2-methyl-2-propanyl)cyclohexyl acetate (A) + trans-4-(2-methyl-2-propanyl)cyclohexyl acetate (B) |  |  |  |  |  |  |  |  |  | Volatility (μg/l air) ([1]; Table 7, citrus note): 291.85 μg/l air; Type [1, 3]: Top; Odor Threshold (μg/l air) ([2]; Table 7, citrus note): 5.43E−02 μg/l air; Odor Value [2, 4]: 5.37E+03 |
| C=CCCC(=O)C1=CCCC(C)(C)C1 [1-(5,5-dimethyl-1-cyclohexen-1-yl)-4-penten-1-one] | Bottom | 38.43 μg/l air |  |  | 38.43 μg/l air | Bottom | 1.64E−06 μg/l air |  |  | Odor Threshold [2, 8]: 1.64E−06 μg/l air; Odor Value [2, 8]: 2.34E+07 |
| O=COCCc1ccccc1 [2-PHENYLETHYL FORMATE] | Top | 567.67 μg/l air |  |  | 567.67 μg/l air | TOP (perfuming compounds having a volatility ranging from 70,000 to 100 μg/l in air are referred to as “top notes”) | 8.34E−04 μg/l air |  |  | Volatility (μg/l air) ([1]; Table 7, citrus note): 567.67 μg/l air; Type [1, 3]: Top; Odor Threshold (μg/l air) ([2]; Table 7, citrus note): 8.34E−04 μg/l air; Odor Value [2, 4]: 6.81E+05 |
| (+−)-3-(4-methyl-3-penten-1-yl)-3-cyclohexene-1-carbaldehyde (A) + (+−)-4-(4-methyl-3-penten-1-yl)-3-cyclohexene-1-carbaldehyde (B) |  |  |  |  |  |  |  |  |  | Volatility (μg/l air) ([1]; Table 4, watery note): 21.54 μg/l air; Type [1, 12]: bottom (perfuming compounds having a volatility ranging from 49 to 0.1 μg/l in air are referred to as “bottom notes”); Odor Threshold (μg/l air) ([2]; Table 4, watery note): 3.68E−03 μg/l air; Odor Value [2, 13]: 5.85E+03 |
| CC1CC(C)(C)OC(Cc2ccccc2)O1 (centres unmarked) | Bottom | 29.99 μg/l air |  |  |  |  | 5.26E−02 μg/l air |  |  |  |
| CC(=O)OC(C)CCC=C(C)CCC=C(C)C (centres unmarked) [1,5,9-TRIMETHYL-4,8-DECADIENYL ACETATE] |  |  |  |  | 14.74 μg/l air | Bottom |  |  |  | Volatility (μg/l air) ([1]; Table 4, watery note): 14.74 μg/l air; Type [1, 12]: bottom (perfuming compounds having a volatility ranging from 49 to 0.1 μg/l in air are referred to as “bottom notes”); Odor Threshold (μg/l air) ([2]; Table 4, watery note): 3.28E−04 μg/l air; Odor Value [2, 13]: 4.49E+04; Odor Threshold [2, 8]: 3.28E−04 μg/l air; Odor Value [2, 8]: 4.49E+04 |

Continued, in another order:

| Type [1, 6] | Volatility (μg/l air) [1, 7] | Volatility [1, 9] | Type [1, 10] | Volatility [1, 8] | Compound | Type [1, 5] | Odor Threshold (μg/l air) [2, 7] | Odor Threshold [2, 9] | Odor Value [2, 9] | other results |
| --- | --- | --- | --- | --- | --- | --- | --- | --- | --- | --- |
| Middle | 79.23 μg/l air |  |  |  | CC(=O)OC/C=C(\C)CCC=C(C)C [(E)-3,7-DIMETHYL-2,6-OCTADIENYL ACETATE] | Middle | 3.57E−02 μg/l air |  |  | Odor Threshold [2, 8]: 3.57E−02 μg/l air |
|  |  | 295.34 μg/l air | Top |  | CCCC1CCC(=O)O1 (racemic) [(+−)-4-HEPTANOLIDE] |  |  | 5.18E−04 μg/l air | 5.70E+05 |  |
|  |  | 9902.98 μg/l air | Top | 9902.98 μg/l air | C=C(C)CC(C)OC(=O)C(C)C (racemic) | TOP (perfuming compounds having a volatility ranging from 70,000 to 100 μg/l in air are referred to as “top notes”) |  | 2.26E−01 μg/l air | 4.39E+04 | Volatility ([1]; Table 9, gourmand note): 9902.98 μg/l air; Type [1, 11]: Top; Odor Threshold ([2]; Table 9, gourmand note): 2.26E−01 μg/l air |
|  |  | 97.79 μg/l air | Middle |  | CCCCCC1CCCC1O (racemic) [(+−)-2-PENTYL-1-CYCLOPENTANOL] |  |  | 5.43E−03 μg/l air | 1.80E+04 |  |
| Top | 1235.24 μg/l air | 1235.24 μg/l air | Top | 1235.24 μg/l air | C=CCOC(=O)CCCCCC [ALLYL HEPTANOATE] | TOP (perfuming compounds having a volatility ranging from 70,000 to 100 μg/l in air are referred to as “top notes”) | 1.75E−02 μg/l air | 1.75E−02 μg/l air | 7.06E+04 | Volatility ([1]; Table 9, gourmand note): 1235.24 μg/l air; Type [1, 11]: Top; Odor Threshold ([2]; Table 9, gourmand note): 1.75E−02 μg/l air |
| Top | 2276.17 μg/l air | 2276.17 μg/l air | Top |  | CCOC(=O)C(=O)C(C)CC (racemic) [(+−)-ETHYL 3-METHYL-2-OXOPENTANOATE] |  | 5.06E−04 μg/l air | 5.06E−04 μg/l air | 4.50E+06 |  |
